From publication PMC11568248, “Targeting Candida albicans O-acetyl-L-homoserine sulfhydrylase (Met15p) in antifungal treatment” (Scientific Reports, 2024)

T1: CaMet15NHp (Candida albicans, UniProt Q59US5)
T1 construct: gene MET15; mostly homotetramer
T1 sequence (Q59US5 2-440): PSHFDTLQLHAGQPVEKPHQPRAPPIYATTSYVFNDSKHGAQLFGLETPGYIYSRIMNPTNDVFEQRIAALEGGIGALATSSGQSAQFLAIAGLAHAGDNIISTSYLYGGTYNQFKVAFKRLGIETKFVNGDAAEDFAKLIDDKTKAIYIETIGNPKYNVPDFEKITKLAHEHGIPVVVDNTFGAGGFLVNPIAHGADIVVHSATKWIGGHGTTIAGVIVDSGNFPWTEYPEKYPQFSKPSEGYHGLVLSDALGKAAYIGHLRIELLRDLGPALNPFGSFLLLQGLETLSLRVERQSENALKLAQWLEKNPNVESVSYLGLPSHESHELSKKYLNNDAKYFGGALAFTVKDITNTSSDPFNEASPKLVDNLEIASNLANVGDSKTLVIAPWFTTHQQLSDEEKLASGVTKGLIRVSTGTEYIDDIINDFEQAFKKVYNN

B1: CaMet15NHp (Candida albicans SC5314) (protein)
chain: T1 sequence (Q59US5 2-440)

What was measured:
CaMet15NHp [1] = biological target: T1, CaMet15NHp; test: RP-HPLC-DAD of L-homocysteine derivatized with DTNB; type: biochemical; conditions: read-out: % inhibition at 10 mM
S = test: purified protein; conditions: O-acetyl-L-homoserine co-substrate, 0.2 mM PLP, 50 mM Tris-HCl pH 8.0, 100 mM NaCl, 37 °C, sulfide ion donor
CaMet15NHp [2] = biological target: T1, CaMet15NHp; test: RP-HPLC-DAD of L-homocysteine derivatized with DTNB; type: biochemical; conditions: substrates OAH and Na2S, 0.2 mM PLP, pH 8.0, 37 °C; racemate
purified protein = substrate: CC(=O)OCC[C@H](N)C(=O)O; test: purified protein; conditions: Na2S co-substrate, 0.2 mM PLP, 50 mM Tris-HCl pH 8.0, 100 mM NaCl, 37 °C

Molecule	inhibition at 10000 µM (CaMet15NHp [1]) [%]	further results
CC(C)(S)[C@H](N)C(=O)O [L-PEN, L-penicillamine]	> 50	
CaMet15NHp (Candida albicans SC5314)		Km (S): 0.027 ± 0.0021 mM
N[C@@H](CCNC(=O)c1ccccc1)C(=O)O [BzDAB, 3-benzamido-1-carboxypropan-1-aminium chloride]	~44	
CC(=O)NCC[C@H](N)C(=O)O [AcDAB, N[4]-acetyl-(S)−2,4-diaminobutanoic acid]	~70	
C=CCC(N)C(=O)O (racemic) [DL-ALG, DL-2-allylglycine]		% inhibition at 10 mM (CaMet15NHp [2]): DL-2-allyglycine (DL-ALG), and DL-glufosinate (DL-GLUF) were slightly inhibitory
CSCC[C@H](N)C(=O)O [L-Met, L-methionine]	< 15	
CP(=O)(O)CCC(N)C(=O)O (racemic) [DL-GLUF, DL-glufosinate]		% inhibition at 10 mM (CaMet15NHp [2]): DL-2-allyglycine (DL-ALG), and DL-glufosinate (DL-GLUF) were slightly inhibitory
B1		Km (purified protein): 9.12 ± 1.77 mM
